The source of these data is patent US6603044B1, “Phthalamide derivatives, or salt thereof agrohorticultural insecticide, and method for using the same” (Nihon Nohyaku Co., Ltd., priority 1998, dated 2003).

The data set concerns Diamond Back Moth (Plutella xylostella). Briefly: Insecticidal effect on diamond back moth (Test Example 1). The data set is classed as in vivo. Particulars: 50 ppm; Chinese cabbage seedling with deposited eggs immersed about 30 seconds; 25° C.; six days after the immersion. From the text:
Insecticidal Effect on Diamond Back Moth (Plutella xylostella)
Adult diamondback moths were released and allowed to oviposit on a Chinese cabbage seedling. Two days after the release, the seedling having the eggs deposited thereon was immersed for about 30 seconds in a liquid chemical prepared by diluting a preparation containing each compound listed in Table 1, 2 or 3 as an active ingredient to adjust the concentration to 50 ppm. After air-dryness, it was allowed to stand in a room thermostatted at 25° C. Six days after the immersion, the hatched insects were counted. The mortality was calculated according to the following equation and the insecticidal effect was judged according to the criterion shown below. The test was carried out with triplicate groups of 10 insects.
Take `CSCCN(C)C(=O)c1c(F)cccc1C(=O)Nc1ccc(C(F)(C(F)(F)F)C(F)(F)F)cc1C` [2-7]: the “Test Example 1 insecticidal effect (mortality)” value is “A (100)”.
In the case of `Cc1cc(C(F)(C(F)(F)F)C(F)(F)F)ccc1NC(=O)c1cccc(F)c1C(=O)N(C)CC[S+](C)[O-]` (stereo not shown) [2-9] it was “A (100)”; in that of `CCN(CC[S+](C)[O-])C(=O)c1c(F)cccc1C(=O)Nc1ccc(C(F)(C(F)(F)F)C(F)(F)F)cc1C` (stereo not shown) [2-11], “A (100)”.
On to `CCN(CSC)C(=O)c1c(Cl)cccc1C(=O)Nc1ccc(OC(F)(F)F)cc1C` [2-16], for which the “Test Example 1 insecticidal effect (mortality)” value is listed as “A (100)”.
Turning to `Cc1cc(C(F)(C(F)(F)F)C(F)(F)F)ccc1NC(=O)c1cccc(I)c1C(=O)N1CCSC1` [3-2], the “Test Example 1 insecticidal effect (mortality)” value is “A (100)”.
Take `CSCC(C)NC(=O)c1cccc(S(C)(=O)=O)c1C(=O)Nc1ccc(C(F)(C(F)(F)F)C(F)(F)F)cc1C` (stereo not shown) [Compound No. 192, N^1-(4-Heptafluoroisopropyl-2-methylphenyl)-N^2-(1-methyl-2-methylthioethyl)-6-methylsulfonylphthalamide]: the “Test Example 1 insecticidal effect (mortality)” value is recorded as “A (100)”.
With `CSCC(C)NC(=O)c1c(I)cccc1C(=O)Nc1ccc(OC(F)F)cc1C` (stereo not shown) [compound 4], the “Test Example 1 insecticidal effect (mortality)” value is “A (100)”.
`CSCC(C)NC(=O)c1c(I)cccc1C(=O)Nc1ccc(Cl)cc1C` (stereo not shown) [compound 9]: the “Test Example 1 insecticidal effect (mortality)” value is “A (100)”.
For the compound `CSCC(C)NC(=O)c1c(F)cccc1C(=O)Nc1ccc(OC(F)(F)F)cc1C` (stereo not shown) [compound 12], the “Test Example 1 insecticidal effect (mortality)” value was “A (100)”.
The entry for `CSCC(C)NC(=O)c1c(F)cccc1C(=O)Nc1ccc(OC(F)F)cc1C` (stereo not shown) [compound 13] is “A (100)”; for `CSCC(C)NC(=O)c1ccccc1C(=O)Nc1ccc(C(F)(F)C(F)(F)F)cc1C` (stereo not shown) [compound 14] it is “A (100)”; for `CSCC(C)NC(=O)c1ccccc1C(=O)Nc1ccc(OC(F)(F)F)cc1C` (stereo not shown) [compound 15] it is “A (100)”.
Turning to `CCSCC(C)NC(=O)c1c(F)cccc1C(=O)Nc1ccc(OC(F)(F)F)cc1C` (stereo not shown) [compound 27], the “Test Example 1 insecticidal effect (mortality)” value is “A (100)”.
The entry for `CSCC(CSC)NC(=O)c1c(I)cccc1C(=O)Nc1ccc(C(F)(F)C(F)(F)F)cc1C` [compound 36] is “A (100)”; for `CSCC(C)NC(=O)c1ccc(Cl)c(Cl)c1C(=O)Nc1ccc(C(F)(C(F)(F)F)C(F)(F)F)cc1C` (stereo not shown) [compound 42] it is “A (100)”; for `CSCC(C)NC(=O)c1c(I)cccc1C(=O)Nc1cc2c(cc1Cl)OC(F)(F)C(F)O2` (stereo not shown) [compound 47] it is “A (100)”.
For the compound `CSCCNC(=O)c1cccc(I)c1C(=O)Nc1ccc(OC(F)(F)F)cc1C` [compound 51], the “Test Example 1 insecticidal effect (mortality)” value is on record as “A (100)”.
In the case of `CSCCNC(=O)c1c(I)cccc1C(=O)Nc1ccc(OC(F)(F)F)cc1C` [compound 52] it was “A (100)”; in that of `CSCCCNC(=O)c1c(I)cccc1C(=O)Nc1ccc(OC(F)(F)F)cc1C` [compound 55], “A (100)”.
As for `Cc1cc(OC(F)(F)F)ccc1NC(=O)c1cccc(I)c1C(=O)NCCSC(C)C` [compound 58], the “Test Example 1 insecticidal effect (mortality)” value is listed as “A (100)”.
In the case of `CCSCCNC(=O)c1c(I)cccc1C(=O)Nc1ccc(OC(F)(F)F)cc1C` [compound 71] it was “A (100)”.
In the case of `CCCCCCSCC(C)NC(=O)c1c(I)cccc1C(=O)Nc1ccc(OC(F)(F)F)cc1C` (stereo not shown) [compound 77] it was “A (100)”; in that of `CCCCCCSCC(C)NC(=O)c1c(I)cccc1C(=O)Nc1ccc(C(F)(C(F)(F)F)C(F)(F)F)cc1C` (stereo not shown) [compound 78], “A (100)”; in that of `CC(CS(C)(=O)=O)NC(=O)c1c(I)cccc1C(=O)Nc1cc2c(cc1Cl)OC(F)(F)C(F)O2` (stereo not shown) [compound 103], “A (100)”.
Consider `CSCC(C)NC(=O)c1c(C(=O)Nc2ccc(OC(F)(F)F)cc2C)cccc1[N+](=O)[O-]` (stereo not shown) [compound 104], for which the “Test Example 1 insecticidal effect (mortality)” value is listed as “A (100)”.
The entry for `CSCC(C)NC(=O)c1cc(I)ccc1C(=O)Nc1ccc(OC(F)(F)F)cc1C` (stereo not shown) [compound 107] is “A (100)”; for `CSCC(C)NC(=O)c1ccc(I)cc1C(=O)Nc1ccc(OC(F)(F)F)cc1C` (stereo not shown) [compound 110] it is “A (100)”; for `Cc1cc(C(F)(F)C(F)(F)F)ccc1NC(=O)c1c(Cl)cccc1C(=O)NC(C)CS(C)(=O)=O` (stereo not shown) [compound 116] it is “A (100)”.
In the case of `CCC(CSC)NC(=O)c1c(I)cccc1C(=O)Nc1ccc(C(F)(C(F)(F)F)C(F)(F)F)cc1C` (stereo not shown) [compound 120] it was “A (100)”; in that of `CSCC(C)NC(=O)c1c(SC(F)(F)F)cccc1C(=O)Nc1ccc(C(F)(F)C(F)(F)F)cc1C` (stereo not shown) [compound 129], “A (100)”.
The entry for `CSCC(C)NC(=O)c1c(C(=O)Nc2ccc(C(F)(C(F)(F)F)C(F)(F)F)cc2C)cccc1[S+]([O-])C(F)(F)F` (stereo not shown) [compound 132] is “A (100)”; for `CSCC(C)NC(=O)c1c(C(=O)Nc2ccc(OC(F)(F)F)cc2C)ccc(F)c1Cl` (stereo not shown) [compound 147] it is “A (100)”.
For `CSCCCC(C)NC(=O)c1cccc(Cl)c1C(=O)Nc1ccc(C(F)(F)C(F)(F)F)cc1C` (stereo not shown) [compound 151], the “Test Example 1 insecticidal effect (mortality)” value is on record as “A (100)”.
For the compound `Cc1cc(C(F)(F)C(F)(F)F)ccc1NC(=O)c1cccc(Cl)c1C(=O)NC(C)CCC[S+](C)[O-]` (stereo not shown) [compound 152], the “Test Example 1 insecticidal effect (mortality)” value is given as “A (100)”.
The entry for `CSCC(C)NC(=O)c1c(C(=O)Nc2ccc(C(F)(F)C(F)(F)F)cc2C)ccc2c1OCO2` (stereo not shown) [compound 158] is “A (100)”; for `Cc1cc(C(F)(C(F)(F)F)C(F)(F)F)ccc1NC(=O)c1cccc(Cl)c1C(=O)NC(C)(C)C[S+](C)[O-]` (stereo not shown) [compound 172] it is “A (100)”; for `CC[S+]([O-])CCCCC(C)NC(=O)c1c(I)cccc1C(=O)Nc1ccc(C(F)(F)C(F)(F)F)cc1C` (stereo not shown) [compound 177] it is “A (100)”.
The entry for `Cc1cc(OC(F)(F)F)ccc1NC(=O)c1ccc(Cl)c(Cl)c1C(=O)NC(C)CS(C)(=O)=O` (stereo not shown) [compound 194] is “A (100)”; for `CCSC(C)CNC(=O)c1cccc(I)c1C(=O)Nc1ccc(C(F)(C(F)(F)F)C(F)(F)F)cc1C` (stereo not shown) [compound 209] it is “A (100)”.
In the case of `CC[S+]([O-])CCCC(C)NC(=O)c1c(Br)cccc1C(=O)Nc1ccc(C(F)(C(F)(F)F)C(F)(F)F)cc1C` (stereo not shown) [compound 214] it was “A (100)”.
Consider `COc1ccc(C(=O)Nc2ccc(C(F)(C(F)(F)F)C(F)(F)F)cc2C)c(C(=O)NC(C)CSC)c1Cl` (stereo not shown) [compound 222], for which the “Test Example 1 insecticidal effect (mortality)” value is reported as “A (100)”.
For the compound `Cc1cc(OC(F)(F)F)ccc1NC(=O)c1cccc(I)c1C(=O)NC1CCSC1` (stereo not shown) [compound 258], the “Test Example 1 insecticidal effect (mortality)” value is “A (100)”.
As for `CCS(=O)(=O)CCC(C)NC(=O)c1c(Cl)cccc1C(=O)Nc1ccc(C(F)(C(F)(F)F)C(F)(F)F)cc1C` (stereo not shown) [compound 275], the “Test Example 1 insecticidal effect (mortality)” value is “A (100)”.
With `Cc1cc(C(F)(F)F)ccc1NC(=O)c1cccc(Br)c1C(=O)NC(C)CS(C)(=O)=O` (stereo not shown) [compound 277], the “Test Example 1 insecticidal effect (mortality)” value is “A (100)”.
Consider `Cc1cc(C(F)(C(F)(F)F)C(F)(F)F)ccc1NC(=O)c1ccc2c(c1C(=O)NC(C)CS(C)(=O)=O)OC(F)(F)O2` (stereo not shown) [compound 289], for which the “Test Example 1 insecticidal effect (mortality)” value is reported as “A (100)”.
Regarding `CSCC(C)(C)NC(=O)c1c(C(=O)Nc2ccc(OC(F)(F)F)cc2C)ccc2c1OC(F)(F)O2` [compound 292], the “Test Example 1 insecticidal effect (mortality)” value is recorded as “A (100)”.
In the case of `CSCC(C)NC(=O)c1c(I)cccc1C(=O)Nc1ccc(C(F)(F)F)cc1C` (stereo not shown) [compound 307] it was “A (100)”; in that of `CSCC(C)(C)NC(=O)c1c(C(=O)Nc2ccc(OC(F)(F)F)cc2C)cccc1[N+](=O)[O-]` [compound 322], “A (100)”.
In the case of `CSCC(C)(C)NC(=O)c1c(C(=O)Nc2ccc(Br)cc2C)cccc1[N+](=O)[O-]` [compound 324] it was “A (100)”; in that of `COC(=O)CC[S+]([O-])CC(C)NC(=O)c1c(I)cccc1C(=O)Nc1ccc(C(F)(C(F)(F)F)C(F)(F)F)cc1C` (stereo not shown) [compound 342], “A (100)”; in that of `COC(=O)CCS(=O)(=O)CC(C)NC(=O)c1c(I)cccc1C(=O)Nc1ccc(C(F)(C(F)(F)F)C(F)(F)F)cc1C` (stereo not shown) [compound 343], “A (100)”.
For `Cc1cc(C(F)(C(F)(F)F)C(F)(F)F)ccc1NC(=O)c1cccc(I)c1C(=O)NC(C)CS(=O)(=O)c1nc2ccccc2s1` (stereo not shown) [compound 345], the “Test Example 1 insecticidal effect (mortality)” value is on record as “A (100)”.
With `CCSCC(C)NC(=O)c1ccc(OC(F)(F)F)cc1C(=O)Nc1ccc(C(F)(C(F)(F)F)C(F)(F)F)cc1C` (stereo not shown) [compound 347], the “Test Example 1 insecticidal effect (mortality)” value is given as “A (100)”.
The entry for `CSCC(C)(C)NC(=O)c1ccc(OC(F)(F)F)cc1C(=O)Nc1ccc(C(F)(C(F)(F)F)C(F)(F)F)cc1C` [compound 356] is “A (100)”.
The entry for `C[S+]([O-])CC(C)(C)NC(=O)c1c(C(=O)Nc2ccc(OC(F)(F)F)cc2Cl)cccc1[N+](=O)[O-]` (stereo not shown) [compound 377] is “A (100)”.
